Data taken from patent publication US20070128217A1 (priority 2003, published 2007).

Columns and labels:
[1] = test system: antibodies in sera from SARS patients (sera 1a, 1b, 2, 6, 37, 62, London, SARS-yellow, SARS-green); assay type: binding, human; parameters: Binding of serum 6 to linear peptides of protein X1 of SARS-CoV Urbani / Binding of serum 37 to linear peptides of protein X1 of SARS-CoV Urbani / Binding of serum 6 to looped/cyclic peptide (PEPSCAN-ELISA) / Binding of serum 37 to looped/cyclic peptide (PEPSCAN-ELISA) / Binding of serum 37 to looped/cyclic peptides of protein X1 of SARS-CoV Urbani / Binding of serum 6 to linear peptides of protein X2 / Binding of serum 37 to linear peptides of protein X2 / Binding of serum 37 to looped/cyclic peptides of protein X2 of SARS-CoV Urbani / Binding of serum 6 to linear peptides of protein M of SARS-CoV Urbani / Binding of serum 37 to linear peptides of protein M of SARS-CoV Urbani / Binding of serum 6 to looped/cyclic peptides of protein M of SARS-CoV Urbani / Binding of serum 37 to looped/cyclic peptides of protein M of SARS-CoV Urbani / Binding of serum 6 to linear peptides of protein X3 of SARS-CoV Urbani / Binding of serum 37 to linear peptides of protein X3 of SARS-CoV Urbani / Binding of serum 37 to looped/cyclic peptides of protein X3 of SARS-CoV Urbani / Binding of serum 6 to linear peptides of protein X4 of SARS-CoV Urbani / Binding of serum 37 to linear peptides of protein X4 of SARS-CoV Urbani / Binding of serum 37 to looped/cyclic peptides of protein X4 of SARS-CoV Urbani / Binding of serum 6 to linear peptides of protein X5 of SARS-CoV Urbani / Binding of serum 37 to linear peptides of protein X5 of SARS-CoV Urbani / Binding of serum 37 to looped/cyclic peptides of protein X5 of SARS-CoV Urbani / Binding of serum 6 to linear peptides of protein N of SARS-CoV Urbani / Binding of serum 37 to linear peptides of protein N of SARS-CoV Urbani / Binding of serum 6 to linear peptide (PEPSCAN-ELISA) / Binding of serum 1a to looped/cyclic peptides of protein N of SARS-CoV Urbani / Binding of serum 1b to looped/cyclic peptides of protein N of SARS-CoV Urbani / Binding of serum 2 to looped/cyclic peptides of protein N of SARS-CoV Urbani / Binding of serum 6 to looped/cyclic peptides of protein N of SARS-CoV Urbani / Binding of serum 37 to looped/cyclic peptides of protein N of SARS-CoV Urbani / Binding of serum 62 to looped/cyclic peptides of protein N of SARS-CoV Urbani / Binding of serum London to looped/cyclic peptides of protein N of SARS-CoV Urbani / Binding of serum SARS-green to looped/cyclic peptides of protein N of SARS-CoV Urbani: unit not given here
[2] = test system: control sera (pooled serum of ten healthy LUMC hospital workers; commercial negative donor pooled serum from the Dutch bloodbank); assay type: binding, human; parameters: Binding of Control serum LUMC to linear peptides / Binding of Control serum Blood-bank to linear peptides / Binding of Control serum LUMC to looped peptides / Binding of Control Serum Blood-Bank to Looped peptides / Binding of Control serum LUMC to linear peptides of the protein M of SARS-CoV Urbani / Binding of Control serum Blood-bank to linear peptides of the protein M of SARS-CoV Urbani / Binding of Control serum LUMC to looped peptides of the protein M of SARS-CoV Urbani / Binding of Control Serum Blood-Bank to Looped peptides of the protein M of SARS-CoV Urbani: unit not given here
[3] = test system: rabbit serum obtained by immunizing a rabbit with the SARS-CoV strain Frankfurt 1; assay type: binding; parameters: Binding of a rabbit serum to linear peptides / Binding of a rabbit serum to looped peptides / Rabbit serum linear peptides / Rabbit serum looped peptides / Binding of a rabbit serum to linear peptides of protein N of SARS-CoV Urbani (Rabbit serum linear peptides) / Binding of a rabbit serum to looped/cyclic peptides of protein N of SARS-CoV Urbani (Rabbit serum looped peptides): unit not given here

STQITTDTGIENATF
Binding of serum 1a to linear peptides of protein X1 of SARS-CoV Urbani [1]: 0.5
Binding of serum 1a to looped/cyclic peptides of protein X1 of SARS-CoV Urbani [1]: 0.6
Binding of serum 1b to linear peptides of protein X1 of SARS-CoV Urbani [1]: 0.4
Binding of serum 1b to looped/cyclic peptides of protein X1 of SARS-CoV Urbani [1]: 0.4
Binding of serum 2 to linear peptides of protein X1 of SARS-CoV Urbani [1]: 0.4
Binding of serum 2 to looped/cyclic peptides of protein X1 of SARS-CoV Urbani [1]: 0.3
Binding of serum 6 to linear peptides of protein X1 of SARS-CoV Urbani [1]: 0.5
Binding of serum 6 to looped/cyclic peptides of protein X1 of SARS-CoV Urbani [1]: 0.3
Binding of serum 37 to linear peptides of protein X1 of SARS-CoV Urbani [1]: 0.6
Binding of serum 37 to looped/cyclic peptides of protein X1 of SARS-CoV Urbani [1]: 0.6
Binding of serum 62 to linear peptides of protein X1 of SARS-CoV Urbani [1]: 0.4
Binding of serum 62 to looped/cyclic peptides of protein X1 of SARS-CoV Urbani [1]: 0.6
Binding of serum London to linear peptides of protein X1 of SARS-CoV Urbani [1]: 0.2
Binding of serum London to looped/cyclic peptides of protein X1 of SARS-CoV Urbani [1]: 0.2
Binding of serum SARS-green to linear peptides of protein X1 of SARS-CoV Urbani [1]: 0.3
Binding of serum SARS-green to looped/cyclic peptides of protein X1 of SARS-CoV Urbani [1]: 0.4
Binding of serum SARS-yellow to linear peptides of protein X1 of SARS-CoV Urbani [1]: 0.2
Binding of serum SARS-yellow to looped/cyclic peptides of protein X1 of SARS-CoV Urbani [1]: 0.4
Binding of Control Serum Blood-Bank to Looped peptides [2]: 0.5
Binding of Control serum Blood-bank to linear peptides [2]: 0.5
Binding of Control serum LUMC to linear peptides [2]: 0.6
Binding of Control serum LUMC to looped peptides [2]: 0.6
Binding of a rabbit serum to linear peptides [3]: 0.1
Binding of a rabbit serum to looped peptides [3]: 0.7

SYFVASFRLFARTRS
Binding of serum 1a to linear peptides of protein M of SARS-CoV Urbani [1]: 0.7
Binding of serum 1b to linear peptides of protein M of SARS-CoV Urbani [1]: 0.6
Binding of serum 2 to linear peptides of protein M of SARS-CoV Urbani [1]: 0.5
Binding of serum 6 to linear peptides of protein M of SARS-CoV Urbani [1]: 0.5
Binding of serum 37 to linear peptides of protein M of SARS-CoV Urbani [1]: 0.4
Binding of serum 62 to linear peptides of protein M of SARS-CoV Urbani [1]: 0.4
Binding of serum London to linear peptides of protein M of SARS-CoV Urbani [1]: 0.3
Binding of serum SARS-green to linear peptides of protein M of SARS-CoV Urbani [1]: 0.4
Binding of serum SARS-yellow to linear peptides of protein M of SARS-CoV Urbani [1]: 0.1
Recognition of the peptide by sera of SARS-CoV infected individuals, and form (linear, looped/cyclic) in which it is recognized [1]: recognized in looped/cyclic form
Binding of Control Serum Blood-Bank to Looped peptides of the protein M of SARS-CoV Urbani [2]: 1.0
Binding of Control serum Blood-bank to linear peptides of the protein M of SARS-CoV Urbani [2]: 0.6
Binding of Control serum LUMC to linear peptides of the protein M of SARS-CoV Urbani [2]: 0.5
Binding of Control serum LUMC to looped peptides of the protein M of SARS-CoV Urbani [2]: 0.9
Rabbit serum linear peptides [3]: 0.2
Rabbit serum looped peptides [3]: 0.4

TAAFRDVLVVLNKRT
Binding of serum 1a to linear peptides of protein X5 of SARS-CoV Urbani [1]: 0.5
Binding of serum 1a to looped/cyclic peptides of protein X5 of SARS-CoV Urbani [1]: 0.7
Binding of serum 1b to linear peptides of protein X5 of SARS-CoV Urbani [1]: 0.6
Binding of serum 1b to looped/cyclic peptides of protein X5 of SARS-CoV Urbani [1]: 0.6
Binding of serum 2 to linear peptides of protein X5 of SARS-CoV Urbani [1]: 0.6
Binding of serum 2 to looped/cyclic peptides of protein X5 of SARS-CoV Urbani [1]: 0.7
Binding of serum 6 to linear peptides of protein X5 of SARS-CoV Urbani [1]: 0.6
Binding of serum 6 to looped/cyclic peptides of protein X5 of SARS-CoV Urbani [1]: 0.9
Binding of serum 37 to linear peptides of protein X5 of SARS-CoV Urbani [1]: 0.5
Binding of serum 37 to looped/cyclic peptides of protein X5 of SARS-CoV Urbani [1]: 0.6
Binding of serum 62 to linear peptides of protein X5 of SARS-CoV Urbani [1]: 0.5
Binding of serum 62 to looped/cyclic peptides of protein X5 of SARS-CoV Urbani [1]: 0.6
Binding of serum London to linear peptides of protein X5 of SARS-CoV Urbani [1]: 0.5
Binding of serum London to looped/cyclic peptides of protein X5 of SARS-CoV Urbani [1]: 1.1
Binding of serum SARS-green to linear peptides of protein X5 of SARS-CoV Urbani [1]: 0.2
Binding of serum SARS-green to looped/cyclic peptides of protein X5 of SARS-CoV Urbani [1]: 0.5
Binding of serum SARS-yellow to linear peptides of protein X5 of SARS-CoV Urbani [1]: 0.7
Binding of serum SARS-yellow to looped/cyclic peptides of protein X5 of SARS-CoV Urbani [1]: 0.5
Binding of Control Serum Blood-Bank to Looped peptides [2]: 0.8
Binding of Control serum Blood-bank to linear peptides [2]: 0.7
Binding of Control serum LUMC to linear peptides [2]: 0.8
Binding of Control serum LUMC to looped peptides [2]: 0.6
Rabbit serum linear peptides [3]: 0.3
Rabbit serum looped peptides [3]: 0.4
